{"source": "patent US20180237362A1", "about": "“NOVEL POLYGODIAL ANALOGS FOR THE TREATMENT OF CANCER AND OTHER PROLIFERATIVE DISEASES” (THE BOARD OF REGENTS OF THE UNIVERSITY OF TAXAS SYSTEM, priority 2015, published 2018)", "key": {"[1]": {"system": "panel of cancer cell lines (A549, SKMEL-28, MCF-7, U373, Hs683)", "assay": "MTT antiproliferative assay, panel of five cancer cell lines", "assay_type": "cell-based, human", "details": "for GI50: mean over five cell lines, 72 h treatment, MTT assay, read-out: GI50 in vitro values, Mean + SEM", "method": "Antiproliferative properties of the synthesized compounds were evaluated by the MTT assay. All compounds were dissolved in DMSO at a concentration of either 100 μM or 50 μM prior to cell treatment. The cells were trypsinized and seeded at various cell concentrations depending on the cell type. The cells were grown for 24 h to 72 h, treated with compounds at concentrations ranging from 0.001 to 100 μM and incubated for 48 or 72 h in 100 or 200 μL media depending on the cell line used. The number of experiments and replicates varied depending on the cell line. Cells treated with 0.1% DMSO were used as a negative control; 1 μM PAO was used as a positive control.\nThe synthesized C12-Wittig derivatives were evaluated for antiproliferative activities in a panel of cancer cell lines that included apoptosis-resistant human U373 glioblastoma (GBM) (Lefranc et al., 2013), human A549 non-small cell lung cancer (NSCLC) and human SKMEL-28 melanoma (Mathieu et al., 2009) as well as apoptosis-sensitive human Hs683 anaplastic oligodendroglioma (Lefranc et al., 2013) and human MCF-7 breast cancer (Frolova et al., 2013)."}, "HeLa cells": {"system": "HeLa cells", "assay": "Morphological changes, HeLa", "assay_type": "cell-based, human", "details": "P3 50 μM, 1 hour", "method": "FIGS. 12A-B Morphological changes (20×) in HeLa cells (FIG. 12Aa-d) and HSC3 cells (FIG. 12Ba-d) with no treatment (a) or treated with Polygodial 80 μM (b), P10 4 μM (c), and P3 50 μM (d) for 1 hour. Differences in morphological changes between treatments indicate potentially unique mechanisms-of-action between polygodial and P10 (isomer), and P3 (novel analog)."}, "[2]": {"system": "transgenic mouse glioma cells (neurosphere cultures)", "assay": "CytoTox-Fluor cytotoxicity assay, neurosphere glioma cultures", "assay_type": "cell-based", "details": "cdkn2a deletion with PDGFB or EGFRvIII; 24 h; 5 at 20 μM, CBD at 10 μM", "method": "FIGS. 5A-D. Activity of 5 against neurosphere glioma cell cultures with clinically relevant mutations. Transgenic mouse glioma cells of defined molecular subtypes were generated by forced expression of EGFRvIII (classical GBM subtype), PDGFB (proneural GBM subtype) in cdkn2a-deficient and cdkn2a/TRPV1-doubly deficient subventricular neural precursors (NPC). These primary cell cultures were treated for 24 hours either with 10 μM CBD versus a corresponding vehicle-control (containing 0.01% DMSO) or 20 μM of 5 versus vehicle control (0.02% DMSO). Cytotoxicity was measured 24 h after incubation and base-line cytotoxicity levels in the controls were arbitrarily defined as 1. Read-outs from treated cells were normalized to their respective vehicle controls and -fold change of relative cytotoxicity was calculated. Each bar represents the mean±SD from two independent experiments; statistical significance, as determined by unpaired t-tests, is indicated: *** represents p<0.001; ** p<0.005; * p=0.0257; ns not significant).\nHuman mammary carcinoma MCF-7 (ATCC HTB22) cells were cultured in RPMI supplemented with 10% FBS. […]\nThe CytoTox-Fluor cytotoxicity assay from Promega has been used according to manufacturer's instructions. […] After 2 hours of incubation at 37° C., the fluorescence intensity was measured using the Tecan InfiniteF200 fluorescence plate reader (485 nm Ex/520 nm Em). […]"}, "[3]": {"system": "U87 glioblastoma cell cultures", "assay": "MTT growth curves, U87", "assay_type": "cell-based, human", "details": "apoptosis-resistant U87 GBM; concentrations up to 100 μM", "method": "Human mammary carcinoma MCF-7 (ATCC HTB22) cells were cultured in RPMI supplemented with 10% FBS. The U87 cells (ATCC HTB-14) were cultured in DMEM culture medium, while the A549 cells (DSMZ ACC107) were cultured in RPMI culture medium supplemented with 10% heat-inactivated FBS. The GBM Hs683 (ATCC HTB-138) cells were cultivated in DMEM supplemented with 10% FBS. The human uterine sarcoma MES-SA (ATCC CRL1966) and MES-SA/D×5 cells were cultured in RPMI-1640 medium supplemented with 10% FBS with MES SA/D×5 maintained in the presence of 500 nM Doxorubicin (Sigma). SKMEL-28 cells (ATCC HTB72) and U373 GBM cells (ECACC 08061901) were cultured in RPMI culture medium supplemented with 10% heat-inactivated FBS. Cell culture media were supplemented with 4 mM glutamine (Lonza code BE17-605E), 100 μg/mL gentamicin (Lonza code 17-5182), and penicillin-streptomycin (200 units/ml and 200 μg/ml) (Lonza code 17-602E). The MDA-MB-231 (ATCC HTB-26) epithelial mammary adenocarcinoma cells were cultured in Eagle's minimum essential medium (EMEM; Invitrogen) containing 5% fetal calf serum (FCS, Cambrex), 2 mM L-glutamine (Invitrogen), 0.06% HEPES (Invitrogen) and penicillin (50 IU/ml)/streptomycin (50 µg/ml; Invitrogen) at 37° C. in a humidified atmosphere of 5% CO2 in air. Transformed mouse NPCs were cultured in suspension under neurosphere conditions at 37° C. in a humidified atmosphere of […] and 5% CO2 in DMEM F12 (Invitrogen 11320-074) supplemented with 1×B27 supplement (Invitrogen 17504-044), 5% penicillin-streptomycin (Biochrom 10378-017), 10 ng/ml EGF (R&D systems 236-EG), 10 ng/ml FGF (PeproTech 100-18B).\nAntiproliferative properties of the synthesized compounds were evaluated by the MTT assay. All compounds were dissolved in DMSO at a concentration of either 100 μM or 50 μM prior to cell treatment. The cells were trypsinized and seeded at various cell concentrations depending on the cell type. […]"}}, "note": "Like-named read-outs stand apart in the source and are kept apart here.", "data": [{"compound": "CC1(C)CCC[C@]2(C)[C@@H](C=O)C(C=O)=CC[C@@H]12", "note": "[Compound 1, Polygodial]", "values": [{"measurement": "antiproliferative activity in the cancer cell panel", "setting": "[1]; 72-hour treatment", "value": "ineffective"}, {"measurement": "GI50", "setting": "[1]; Homo sapiens", "value": "> 85", "unit": "µM"}]}, {"compound": "COC(=O)/C=C/C1=CC[C@H]2C(C)(C)CCC[C@]2(C)[C@H]1C=O", "note": "[Compound 5]", "values": [{"measurement": "resistant populations in growth curves", "setting": "[1]; all 5 cultures, concentrations just slightly exceeding GI50, close to 0% cell viability", "value": "absence of resistant populations"}, {"measurement": "GI50", "setting": "[1]", "value": "20 ± 3", "unit": "µM"}, {"measurement": "morphological changes, HeLa", "setting": "HeLa cells", "value": "apoptotic figures"}, {"measurement": "cytotoxicity against GBM neurosphere cultures", "setting": "[2]", "value": "effectiveness similar to that of cannabidiol (CBD)"}, {"measurement": "effect on proliferation/viability of all cells, U87", "setting": "[3]", "value": "growth inhibitory properties against most of the cells"}]}]}
